Data set [1] deals with Trypanosoma brucei brucei. Put plainly: MMV: Inhibition of Trypanosoma brucei brucei (Squib 427) (HAT in vitro). The data set is classed as functional, organism-based.
Data set [2] can be described thus: MMV: Cytotoxicity against human fibroblasts (MRC-5) cells. The following applies: MRC-5 cells (human fibroblasts).
Data set [3] has as its system Trypanosoma brucei rhodesiense. Description: MMV: Inhibition of Trypanosoma brucei rhodesiense (STIB 900) (HAT in vitro). It counts as functional, organism-based.
The test system of data set [4] is Plasmodium falciparum. Put plainly: MMV: Inhibition of Plasmodium falciparum K1 (EC50). It counts as functional, organism-based.
Another data set relates to Leishmania infantum. Description: MMV: Inhibition of Leishmania infantum (MHOM/MA/BE/67) in vitro. It counts as functional, organism-based.
The test system of data set [5] is Plasmodium falciparum. Description: MMV: Inhibition of Plasmodium falciparum 3D7 at 5uM compound concentration. It counts as functional.
Data set [6] has as its system Plasmodium falciparum. Description: MMV: Inhibition of Plasmodium falciparum 3D7 (EC50). It counts as functional, organism-based.
A further data set relates to Trypanosoma cruzi. Description: MMV: Inhibition of Trypanosoma cruzi (Tulahuen C4 LacZ) (Chagas in vitro). The data set is classed as functional, organism-based.

In ChEMBL document CHEMBL2028040, “Malaria Box” one finds IC50, EC50 and inhibition data, which are given here for 11 compounds.

Each structure is given as a SMILES string.

For orientation: IC50 means the point on the concentration scale where inhibition reaches its midpoint. Lower therefore signals higher potency. In general, EC50 refers to the concentration giving half of the maximal effect. Read a low EC50 as an effect from little substance. By inhibition is commonly meant the relative decrease from the control value, in per cent. The low end stands for little suppression, the high end for strong suppression. For `CCC(O)c1ccc(Br)cc1NC(=O)c1cccc(Cl)c1` (stereo not drawn), the IC50 in data set [1] is 15300 nM; in data set [2] it was greater than 32000 nM; in data set [3] it was 4540 nM; with Leishmania infantum it was greater than 32000 nM; in the data set with Trypanosoma cruzi it was greater than 32000 nM. For the same compound, the EC50 in the data set with Plasmodium falciparum [4] turned out to be 419 nM; in the data set with Plasmodium falciparum [6], 640 nM. The inhibition at 5 µM in the data set on Plasmodium falciparum [5] stood at 97%.

As for `CN(C)CCCNCc1ccc(-c2ccc(F)c(Cl)c2)o1`, the IC50 is 185 nM in data set [1]; 17300 nM in data set [2]; less than 125 nM in data set [3]; 4150 nM in the data set with Leishmania infantum; 3850 nM in the data set on Trypanosoma cruzi. Moreover, the EC50 came out at 763 nM with Plasmodium falciparum [4] and 876 nM in the data set with Plasmodium falciparum [6]. This compound also yielded an inhibition at 5 µM with Plasmodium falciparum [5] of 96%.

As to `CC1CN(C(=O)c2sc3ccccc3c2Cl)CC(C)O1` (stereo not drawn), the concentration for half-maximal inhibition (IC50) (in data set [1]; in data set [2]; in data set [3]; in the data set with Leishmania infantum; with Trypanosoma cruzi) was greater than 32000 nM throughout. In addition, the EC50 was 195 nM in the data set with Plasmodium falciparum [4] and 25.5 nM with Plasmodium falciparum [6]. This compound also registered an inhibition at 5 µM in the data set on Plasmodium falciparum [5] of 95%.

In the case of `O=C(NC1CCN(Cc2ccccc2)CC1)c1cc(C(=O)NC2CCN(Cc3ccccc3)CC2)cc(C(=O)NC2CCN(Cc3ccccc3)CC2)c1`, the 50% inhibitory concentration (IC50) was 4060 nM in data set [1]; greater than 32000 nM in data set [2]; 2840 nM in data set [3]; 4060 nM in the data set with Leishmania infantum; 25100 nM with Trypanosoma cruzi. Also, the EC50 with Plasmodium falciparum [4] was found to be 928 nM; with Plasmodium falciparum [6], 646 nM. The same compound had an inhibition at 5 µM with Plasmodium falciparum [5] of 98%.

`CC(=O)Nc1nnc(SCc2c(C)cc(C(C)(C)C)cc2C)s1`: the IC50 (in data set [1]; in data set [2]; in data set [3]; in the data set with Leishmania infantum; in the data set on Trypanosoma cruzi) was greater than 32000 nM each time. For the same compound, the EC50 in the data set on Plasmodium falciparum [4] came to 843 nM; with Plasmodium falciparum [6], 871 nM. In addition, the inhibition at 5 µM with Plasmodium falciparum [5] was 96%.

Regarding `CCn1c(CN2CCN(Cc3ccccc3)CC2)nc2cc(NC(=O)c3cccs3)ccc21`, the half-inhibitory concentration (IC50) was greater than 32000 nM in data set [1]; greater than 32000 nM in data set [2]; 15500 nM in data set [3]; 22600 nM with Leishmania infantum; 13000 nM with Trypanosoma cruzi. In addition, the EC50 came out at 413 nM in the data set on Plasmodium falciparum [4] and 512 nM in the data set on Plasmodium falciparum [6]. This compound yielded an inhibition at 5 µM with Plasmodium falciparum [5] of 97%.

In the case of `Clc1cc(Br)ccc1-c1ccc(CNCC2CCNCC2)o1`, the IC50 is less than 125 nM in data set [1]; 4030 nM in data set [2]; less than 125 nM in data set [3]; 1000 nM in the data set on Leishmania infantum; 1010 nM with Trypanosoma cruzi. In addition, the EC50 came to 1620 nM in the data set with Plasmodium falciparum [4] and 800 nM in the data set with Plasmodium falciparum [6]. Further, the inhibition at 5 µM in the data set with Plasmodium falciparum [5] amounted to 96%.

With `Oc1ccccc1CNCC12CC3CC(CC(C3)C1)C2`, the IC50 in data set [1] is 15700 nM; in data set [2] it was greater than 32000 nM; in data set [3] it was 16000 nM; with Leishmania infantum it was 17300 nM; in the data set with Trypanosoma cruzi, greater than 32000 nM. Moreover, the EC50 in the data set on Plasmodium falciparum [4] amounted to 6.8 nM; in the data set with Plasmodium falciparum [6], 22.6 nM. This compound displayed an inhibition at 5 µM in the data set on Plasmodium falciparum [5] of 96%.

In the case of `CNCCCNc1ccnc2cc(Cl)ccc12`, the IC50 in data set [1] was 3820 nM; in data set [2], greater than 32000 nM; in data set [3], 3920 nM; with Leishmania infantum, 16200 nM; with Trypanosoma cruzi it was 16500 nM. Further, the EC50 in the data set with Plasmodium falciparum [4] is 1000 nM; in the data set on Plasmodium falciparum [6], 82.2 nM. The compound also registered an inhibition at 5 µM in the data set on Plasmodium falciparum [5] of 98%.

In the case of `COc1ccc(Br)cc1C1Nc2ccc3ccccc3c2C2=C1C(=O)CC(c1ccccc1)C2` (stereo not drawn), the IC50 in data set [1] was 4060 nM; in data set [2] it was greater than 32000 nM; in data set [3], 1060 nM; in the data set on Leishmania infantum, greater than 32000 nM; with Trypanosoma cruzi, 1120 nM. Also, the EC50 was 400 nM in the data set with Plasmodium falciparum [4] and 180 nM in the data set with Plasmodium falciparum [6]. In the data set on Plasmodium falciparum [5], this compound came in with an inhibition at 5 µM of 95%.

For `CC1CCN(Cc2ccc(NC(=O)c3cc4ccc5cccnc5c4[nH]3)cc2)CC1`, the IC50 in data set [1] worked out at 1410 nM; in data set [2], 1450 nM; in data set [3], 861 nM; with Leishmania infantum, 3010 nM; in the data set with Trypanosoma cruzi it was 2200 nM. For the same compound, the EC50 in the data set with Plasmodium falciparum [4] is 773 nM; with Plasmodium falciparum [6] it was 274 nM. In addition, in the data set on Plasmodium falciparum [5], at 5 µM the inhibition was 97%.
